Reference: US11286255B2, “Pyridone carboxylic acid derivative or salt thereof” (WAKUNAGA PHARMACEUTICAL CO., LTD., priority 2017, dated 2022)

What was measured:
[1] = tested on: MV4-11 (human acute myeloid leukemia cell line); test: In vitro cell growth inhibition test against MV4-11; assay type: cell-based; conditions: 72 h, MV4-11 cells, 3 days culture, WST-8 (Cell Counting Kit-8), 50% growth inhibition concentration
Procedure: Test Example 2: In Vitro Cell Growth Inhibition Test Against MV4-11 (Human Acute Myeloid Leukemia Cell Line)
The compound of the present invention was dissolved at a concentration of 1 mM in dimethyl sulfoxide and further diluted into 10.00, 2.50, 0.625, 0.156, 0.039, 0.0098, 0.0024, and 0.00061 μM (final concentrations) using dimethyl sulfoxide and IMDM (Thermo Fisher Scientific Inc., 12440-053) medium. Each of these dilutions was added at 0.05 mL/well to a 96-well flat-bottomed multiplate. An MV4-11 cell suspension was diluted into […] using IMDM (Thermo Fisher Scientific Inc., 12440-053) medium containing […] (fetal bovine serum, Thermo Fisher Scientific Inc.), and this dilution was added at 0.05 mL/well to the compound-containing 96-well flat-bottomed multiplate mentioned above, and cultured at 37° C. for 3 days in an incubator containing 5% carbon dioxide.
(§1) After the culture, Cell Counting Kit-8 (Dojindo Laboratories), which adopts WST-8 as a chromogenic substrate, was added at 10 μL/well, and the cells were cultured under the same conditions as above for 6 hours, followed by measurement of absorbance at 450 nm. A cell survival rate was calculated in terms of 50% growth inhibition concentration (IC50 (μM)) by the least square method with that of a control group defined as 100%.

[2] = tested on: WI-38 (human fetal lung fibroblast cell line); test: In vitro cell growth inhibition test against WI-38; assay type: cell-based; conditions: WI-38 normal cells, 12.5 μM compound, 3 days culture, WST-8, control group = 100%
Procedure: Test Example 4: In Vitro Cell Growth Inhibition Test Against WI-38 (Human Fetal Lung Fibroblast Cell Line)
A WI-38 cell suspension was inoculated at 5×10^3 cells/100 μL/well (0.1 mL) to a 96-well flat-bottomed multiplate using DMEM (Sigma-Aldrich Co. LLC, D6429) medium containing 10% FBS (fetal bovine serum, Nichirei Biosciences Inc.), and cultured at 37° C. for 1 day in an incubator containing 5% carbon dioxide. Compound A or the compound of the present invention was dissolved at a concentration of 10 mM in dimethyl sulfoxide and further diluted into 12.5 μM (final concentration) using dimethyl sulfoxide and RPMI-1640 medium. This dilution was added at 0.1 mL/well to the culture plate of the WI-38 cells mentioned above after removal of the medium, and the cells were cultured at 37° C. for 3 days in an incubator containing 5% carbon dioxide.
as §1, with “1 hour,” for “6 hours,”, “calculated” for “calculated in terms of 50% growth inhibition concentration (IC50 (μM)) by the least square method”

[3] = tested on: PC-3 (human prostate cancer cell line); test: In vivo antitumor effect test against PC-3 xenograft; design: species or system female Balb/c nu-nu mouse; conditions: PC-3 xenograft in Balb/c nu-nu mice, 20 mg/kg, IV, Q7D ×3, tumor growth inhibition vs vehicle group
Procedure: Test Example 3: In Vivo Antitumor Effect Test Against PC-3 (Human Prostate Cancer Cell Line)
A suspension of cancer cells (1×10^7 cells/mL) prepared in RPMI culture medium (Sigma-Aldrich Co. LLC, R8758) was subcutaneously inoculated in an amount of 200 μL to the right abdomen of each female Balb/c nu-nu mouse (Charles River Laboratories Japan, Inc.). After tumor engraftment, animals having a sufficient tumor size were randomly assigned to an active (compound A or compound 078) group and a control (vehicle) group.
Each test compound (drug) was dissolved at each administration concentration in physiological saline containing 12.5 mM sodium hydroxide. The administration of the compound or a vehicle was started on the day of randomization and continued once a week for 21 days. During the test period, the body weights were measured twice a week throughout the treatment period, and tumors were measured twice a week using calipers. The tumor volumes were measured according to the expression V=L×W^2/2 (V: volume, mm3; L: length, mm; W: width, mm). Using the following expression:
% TGI=100−((Average tumor volume of the treatment group Average tumor volume of the control group)×100), tumor growth inhibition was calculated on the basis of the average tumor volume of the vehicle group.

[4] = tested on: NCI-H460 (human non-small cell lung cancer cell line); test: In vitro cell growth inhibition test against NCI-H460; assay type: cell-based; conditions: 72 h, NCI-H460 cells, 3 days culture, WST-8 (Cell Counting Kit-8), 50% growth inhibition concentration
Procedure: Test Example 1: In Vitro Cell Growth Inhibition Test Against NCI-H460 (Human Non-Small Cell Lung Cancer Cell Line)
An NCI-H460 cell suspension was inoculated at 4×10^3 cells/100 μL/well (0.1 mL) to a 96-well flat-bottomed multiplate using RPMI-1640 (Sigma-Aldrich Co. LLC, R8758) medium containing 10% […] (fetal bovine serum, Thermo Fisher Scientific Inc.), and cultured at 37° C. for 1 day in an incubator containing 5% carbon dioxide. The compound of the present invention was dissolved at a concentration of 1 mM in dimethyl sulfoxide and further diluted into 5.00, 2.50, 1.25, 0.63, 0.31, 0.16, 0.078, and 0.039 μM (final concentrations) using dimethyl sulfoxide and RPMI-1640 medium. Each of these dilutions was added at 0.1 mL/well to the culture plate of the NCI-H460 cells mentioned above after removal of the medium, and the cells were cultured at 37° C. for 3 days in an incubator containing 5% carbon dioxide.
as §1, with “WST-8 [2-(2-methoxy-4-nitrophenyl)-3-(4-nitrophenyl)-5-(2,4-disulfophenyl)-2H-tetrazolium monosodium salt]” for “WST-8”, “1 hour,” for “6 hours,”

human cancer cells [5] = conditions: cited from earlier work
human cancer cells [6] = conditions: cited from earlier work; remark: listed apart in the source
[7] = tested on: relapsed/refractory acute myeloid leukemia; conditions: phase III trial, in combination with cytarabine, over-sixties; cited from earlier work

Structure (SMILES) | IC50 [1] [nM] | Cell survival rate (%) [2] [%] | % TGI [3] [%] | IC50 [4] [nM] | antitumor effect in vitro (human cancer cells [5]) | antitumor effect in vivo (human cancer cells [6]) | therapeutic effect as compared with a placebo group [7]
Cc1cc(N2CC(C(=O)NCC3CCCCO3)C2)nc2c1c(=O)c(C(=O)O)cn2-c1nccs1 (centres unmarked) [Example 078, 5-methyl-7-{3-[(oxan-2-ylmethyl)carbamoyl]azetidin-1-yl}-4-oxo-1-(1,3-thiazol-2-yl)-1,4-dihydro-1,8-naphthyridine-3-carboxylic acid] | 1400 | 68 | 49.2 | 92 | – | – | –
CNC1CN(c2ccc3c(=O)c(C(=O)O)cn(-c4nccs4)c3n2)CC1OC (centres unmarked) [Compound A, 1,4-Dihydro-7-(3-methoxy-4-methylamino-1-pyrrolidinyl)-4-oxo-1-(2-thiazolyl)-1,8-naphthyridine-3-carboxylic acid, reference compound] | 10300 | 26 | 21.7 | 370 | – | – | –
CNC1CN(c2ccc3c(=O)c(C(=O)O)cn(-c4nccs4)c3n2)CC1OC (centres unmarked) [1,4-dihydro-7-(3-methoxy-4-methylamino-1-pyrrolidinyl)-4-oxo-1-(2-thiazolyl)-1,8-naphthyridine-3-carboxylic acid] | – | – | – | – | excellent antitumor effect | excellent antitumor effect | significant therapeutic effect
